# Measurements from patent US6753348B2, “BTK inhibitors and methods for their identification and use” (Parker Hughes Institute, priority 1998, dated 2004).
# Legend:
# ALL-1 cells = assay: Ceramide-induced apoptosis, MC540/PI flow cytometry; format: cell-based, human; details: 200 μM plus 10 μM C2-ceramide
# JAK1 = JAK1 (Homo sapiens, UniProt P23458); assay: Cell-free tyrosine kinase inhibition assay JAK1; format: biochemical
# NALM-6-UM1 cells = assay: Fas-mediated apoptosis, DNA fragmentation; format: cell-based, human
# Procedure: FIGS. 6A-6D: Apoptotic Responses of Human B-lineage Leukemia Cells to Fas Ligation in Relationship to BTK Expression and Function. Anti-BTK and anti-Actin dual-antibody Western blot analysis of whole cell lysates from BTK-positive NALM-6-UM1 (N6-U1) and BTK-deficient RAMOS-1 cells (FIG. 5A). Anti-Fas Western blot analysis of the same cell lysates. [B] Cells were harvested 24 hours after exposure to anti-Fas antibody at 0.1 μg/ml or 1.0 μg/ml concentrations and DNA from Triton-X-100 lysates was analyzed for fragmentation, as described by Uckun, F. M., et al. (1996) Science 273, 1096-1100; and Uckun, F. M., et al. (1995) Science 267, 886-91. […] [C.1] and [C.2] […] N6-U1 cells were harvested 24 hours after exposure to anti-Fas antibody at 0.1 μg/ml or 1.0 μg/ml concentrations and DNA from Triton-X-100 lysates was analyzed for fragmentation, as described by Uckun, F. M., et al. (1996) Science 273, 1096-1100; and Uckun, F. M., et al. (1995) Science 267, 886-91. […]
# Apoptosis Assays. […] MC540 binding (as an early marker of apoptosis) and PI permeability (as a marker of advanced stage apoptosis) were simultaneously measured in DT-40 cells 24 hours after exposure to anti-Fas antibody as previously described (Uckun, F. M., et al. (1996) Science 273, 1096-1100). Whole cells were analyzed with a FACStar Plus flow cytometer (Becton Dickinson, San Jose, Calif.). […]
# JAK2 = assay: Tyrosine kinase assay JAK2 as named in text; format: biochemical; details: concentrations as high as 100 μg/ml (~278 μM)
# Chain of JAK1 (P23458 whole entry, species assumed, the tested form may be a part): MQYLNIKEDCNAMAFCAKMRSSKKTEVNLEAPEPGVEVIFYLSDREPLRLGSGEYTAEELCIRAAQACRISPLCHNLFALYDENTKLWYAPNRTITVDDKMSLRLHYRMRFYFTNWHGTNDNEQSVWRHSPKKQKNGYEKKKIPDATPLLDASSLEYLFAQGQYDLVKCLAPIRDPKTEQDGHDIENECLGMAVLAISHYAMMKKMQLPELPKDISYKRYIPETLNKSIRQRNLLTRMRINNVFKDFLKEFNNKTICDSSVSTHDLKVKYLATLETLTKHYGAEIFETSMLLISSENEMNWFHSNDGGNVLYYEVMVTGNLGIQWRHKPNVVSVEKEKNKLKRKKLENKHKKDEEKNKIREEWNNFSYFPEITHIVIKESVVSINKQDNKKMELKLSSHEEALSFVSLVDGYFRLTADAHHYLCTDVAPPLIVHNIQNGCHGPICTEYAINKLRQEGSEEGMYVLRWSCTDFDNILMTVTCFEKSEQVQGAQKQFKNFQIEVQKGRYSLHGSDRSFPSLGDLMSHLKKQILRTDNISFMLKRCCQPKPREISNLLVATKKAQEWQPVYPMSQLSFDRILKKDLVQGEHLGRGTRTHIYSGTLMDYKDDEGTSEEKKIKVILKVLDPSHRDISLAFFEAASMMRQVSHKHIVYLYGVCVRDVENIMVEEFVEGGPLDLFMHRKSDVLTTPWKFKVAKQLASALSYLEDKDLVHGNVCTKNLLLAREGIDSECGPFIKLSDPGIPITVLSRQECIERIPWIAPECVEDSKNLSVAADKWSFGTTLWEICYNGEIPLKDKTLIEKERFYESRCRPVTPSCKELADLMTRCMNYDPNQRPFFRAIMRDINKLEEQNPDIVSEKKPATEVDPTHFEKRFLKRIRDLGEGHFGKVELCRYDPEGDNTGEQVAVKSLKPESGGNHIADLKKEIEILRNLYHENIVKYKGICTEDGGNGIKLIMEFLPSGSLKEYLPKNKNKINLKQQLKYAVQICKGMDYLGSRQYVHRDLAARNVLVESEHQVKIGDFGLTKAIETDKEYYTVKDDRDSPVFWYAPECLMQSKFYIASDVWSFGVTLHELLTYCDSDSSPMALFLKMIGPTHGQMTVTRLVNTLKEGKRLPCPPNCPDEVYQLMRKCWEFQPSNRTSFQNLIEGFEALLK
structure (smiles),measurement,setting,value
"C/C(O)=C(\C#N)C(=O)Nc1cc(Br)ccc1Br [LFM-A13, α-Cyano-β-hydroxy-β-methyl-N-(2,5-dibromophenyl)-propenamide]",chemosensitivity to ceramide-induced apoptosis,ALL-1 cells,significantly enhanced the chemosensitivity
same,IC50,JAK1,> 278 µM
same,effect on enzymatic activity of JAK1,JAK1; concentrations as high as 100 μg/ml (~278 μM),did not affect the enzymatic activity
same,sensitivity to Fas-mediated apoptosis after pretreatment,"NALM-6-UM1 cells; 10 μM x 4 hours, then anti-Fas 0.1 or 1.0 μg/ml, 24 hours",sensitive to Fas-mediated apoptosis
same,apoptosis by compound alone,"NALM-6-UM1 cells; 10 μM, 4 hour treatment",did not induce apoptosis
same,effect on enzymatic activity of JAK2,JAK2,did not affect the enzymatic activity
